Experimental data from patent US5140018A, “1,3,2-benzodithiazole-1-oxide compounds” (Abbott Laboratories, priority 1991, dated 1992).
In brackets after ≈: the same amount, converted by molar mass. Like-named read-outs stand apart in the source and are kept apart here.

Columns and labels:
Type in all cases: cell-based
[1] = tested on: Aspergillus niger ATCC 16404; assay: In vitro antifungal MIC, Aspergillus niger ATCC 16404
Experimental: (§1) The in vitro antifungal activity of the compounds of the present invention against a variety of fungiwas determined as follow: Test medium was prepared by dissolving first 5 g of dextrose and then 6.7 g of Bacto Yeast Nitrogen Base® (commercially available from Difco Laboratories) in 100 mL of distilled water. The solution was filter-sterilized and diluted 1:10 with 0.01M pH 8.0 phosphate buffer solution, and the final pH of the medium adjusted to about pH 7.0 when necessary with either 0.1N hydrochloric acid solution of 0.1N sodium hydroxide solution. […] These concentrated stock solutions were diluted to a concentration of 200 μg/mL (twice the highest concentration desired for testing) with the test medium. Amphotericin B, similarly prepared, was used as a reference antifungal agent.
(§2) The test organisms were then inoculated into test tubes containing approximately 3 to 10 mL of test medium and the test tubes incubated overnight at 37° C. A sample of each overnight culture was placed in a test tube and diluted using the test medium until a reading of 95% transmittance was obtained in a conventional UV/visible spectrophotometer set to 560 nm. The adjusted cultures were then diluted 1:50 with test medium. These diluted cultures served as the inocula for the assays which follow and were used within 15 minutes of preparation.
(§3) Next, 2-fold serial dilutions of each test compound in test medium were prepared in a 96-well microtiter plate using calibrated microdiluters attached to an automatic (hand-held) diluter (available from Dynatech Laboratories).
(§4) Using sterile calibrated droppers or a multi-point dispenser, the diluted inoculum suspension was added to each of the wells in the plate. When inoculation was complete, the microtiter tray was covered with a plastic plate sealer to minimize evaporation. After the plate had been sealed, a hole was made above each well with a sterile 26-gauge syringe needle in order to allow gas exchange. If plate sealers were not available, the microtiter trays were stacked in groups of five or less with an empty tray on top. The microtiter trays were then incubated in a humidified chamber at 35°-37° C. for 48 hours or until growth was visible in the growth control wells.
(§5) The minimum inhibitory concentration (MIC) was defined as the lowest concentration of test compound yielding no growth, a slight haze or sparsely isolated colonies on the inoculum spot as compared to the growth control containing no test compound.

[2] = tested on: Cryptococcus albidus ATCC 34140; assay: In vitro antifungal MIC, Cryptococcus albidus ATCC 34140
Experimental: as §1, §2, §3, §4, §5

[3] = tested on: Candida albicans ATCC 62376; assay: In vitro antifungal MIC, Candida albicans ATCC 62376
Experimental: as §1, §2, §3, §4, §5

[4] = tested on: Candida albicans ATCC 10231; assay: In vitro antifungal MIC, Candida albicans ATCC 10231
Experimental: as §1, §2, §3, §4, §5

Candida kefyr ATCC 28838 = assay: In vitro antifungal MIC, Candida kefyr ATCC 28838
Experimental: as §1, §2, §3, §4, §5

Candida albicans 579A = assay: In vitro antifungal MIC, Candida albicans 579A
Experimental: as §1, §2, §3, §4, §5

[5] = tested on: Candida albicans ATCC 38247; assay: In vitro antifungal MIC, Candida albicans ATCC 38247
Experimental: as §1, §2, §3, §4, §5

[6] = tested on: Torulopsis glabrata ATCC 15545; assay: In vitro antifungal MIC, Torulopsis glabrata ATCC 15545
Experimental: as §1, §2, §3, §4, §5

Candida albicans CCH 442 = assay: In vitro antifungal MIC, Candida albicans CCH 442
Experimental: as §1, §2, §3, §4, §5

[7] = tested on: Candida tropicalis NRRL-Y-112; assay: In vitro antifungal MIC, Candida tropicalis NRRL-Y-112
Experimental: as §1, §2, §3, §4, §5

[8] = ATCC16404, Aspergillus niger ATCC 16404, 35°-37° C., 48 hours, read-out: MIC
[9] = Naganishia albida, ATCC34140, Cryptococcus albidus ATCC 34140, 35°-37° C., 48 hours, read-out: MIC
[10] = ATCC62376, Candida albicans ATCC 62376, 35°-37° C., 48 hours, read-out: MIC
[11] = ATCC10231, Candida albicans ATCC 10231, 35°-37° C., 48 hours, read-out: MIC
[12] = Kluyveromyces marxianus, ATCC28838, Candida kefyr ATCC 28838, 35°-37° C., 48 hours, read-out: MIC
[13] = Candida albicans 579A, 35°-37° C., 48 hours, read-out: MIC
[14] = ATCC38247, Candida albicans ATCC 38247, 35°-37° C., 48 hours, read-out: MIC
[15] = Nakaseomyces glabratus, ATCC15545, Torulopsis glabrata ATCC 15545, 35°-37° C., 48 hours, read-out: MIC
[16] = CCH442, Candida albicans CCH 442, 35°-37° C., 48 hours, read-out: MIC
[17] = NRRLY112, Candida tropicalis NRRL-Y-112, 35°-37° C., 48 hours, read-out: MIC

| Compound | MIC [1, 8] [µg/mL] | MIC [2, 9] [µg/mL] | MIC [3, 10] [µg/mL] | MIC [4, 11] [µg/mL] | MIC (Candida kefyr ATCC 28838; [12]) [µg/mL] | MIC (Candida albicans 579A; [13]) [µg/mL] | MIC [5, 14] [µg/mL] | MIC [6, 15] [µg/mL] | MIC (Candida albicans CCH 442; [16]) [µg/mL] | MIC [7, 17] [µg/mL] | other results |
| --- | --- | --- | --- | --- | --- | --- | --- | --- | --- | --- | --- |
| CC(C)(C)CCN1Sc2ccccc2[S+]1[O-] (stereo not drawn) [Example 15] | 1.56 (≈ 6.11 µM) | 12.5 (≈ 48.9 µM) | 1.56 (≈ 6.11 µM) | 1.56 (≈ 6.11 µM) | 0.78 (≈ 3.05 µM) | 3.12 (≈ 12.2 µM) | 25 (≈ 97.9 µM) | 1.56 (≈ 6.11 µM) | 1.56 (≈ 6.11 µM) | 3.12 (≈ 12.2 µM) |  |
| CC(C)(C)CC(C)(C)N1Sc2ccccc2[S+]1[O-] (stereo not drawn) [Example 16, 2-(1,1,3,3-tetramethylbutyl)-1,3,2-benzodithiazole-1-oxide] | 3.12 (≈ 11 µM) | 6.25 (≈ 22 µM) | 6.25 (≈ 22 µM) | 6.25 (≈ 22 µM) | 0.78 (≈ 2.75 µM) | 3.12 (≈ 11 µM) | 1.56 (≈ 5.5 µM) | 6.25 (≈ 22 µM) | 1.56 (≈ 5.5 µM) | 12.5 (≈ 44.1 µM) |  |
| [O-][S+]1c2ccccc2SN1CCO (stereo not drawn) [Example 18, 2-(2-hydroxyethyl)-1,3,2-benzodithiazole-1-oxide] | 6.25 (≈ 29 µM) | 1.56 (≈ 7.25 µM) | 25 (≈ 116 µM) | 12.5 (≈ 58.1 µM) | 0.78 (≈ 3.62 µM) | 12.5 (≈ 58.1 µM) | 1.56 (≈ 7.25 µM) | 6.25 (≈ 29 µM) | 12.5 (≈ 58.1 µM) | 12.5 (≈ 58.1 µM) |  |
| CS(=O)(=O)OCCN1Sc2ccccc2[S+]1[O-] (stereo not drawn) [Example 19, O-(2-(1,3,2-benzodithiazole-2-yl-1-oxide)ethyl)methanesulfonate] | 12.5 (≈ 42.6 µM) | 12.5 (≈ 42.6 µM) | 100 (≈ 341 µM) | 50 (≈ 170 µM) | 1.56 (≈ 5.32 µM) | 50 (≈ 170 µM) | 100 (≈ 341 µM) | 6.25 (≈ 21.3 µM) | 100 (≈ 341 µM) | 25 (≈ 85.2 µM) |  |
| CC[Si](CC)(CC)OCCN1Sc2ccccc2[S+]1[O-] (stereo not drawn) [Example 20, 2-(2-(triethylsilyloxy)ethyl)-1,3,2-benzodithiazole-1-oxide] |  |  |  |  |  |  |  |  |  |  | MIC ([1]; Aspergillus niger, ATCC16404, 48 h): 12.5 µg/mL (≈ 37.9 µM); MIC ([2]; Naganishia albida, ATCC34140, 48 h): 12.5 µg/mL (≈ 37.9 µM); MIC ([3]; Candida albicans, ATCC62376, 48 h): 25 µg/mL (≈ 75.9 µM); MIC ([4]; Candida albicans, ATCC10231, 48 h): 25 µg/mL (≈ 75.9 µM); MIC (Candida kefyr ATCC 28838; Kluyveromyces marxianus, ATCC28838, 48 h): 1.56 µg/mL (≈ 4.73 µM); MIC (Candida albicans 579A; Candida albicans, 579A, 48 h): 25 µg/mL (≈ 75.9 µM); MIC ([5]; Candida albicans, ATCC38247, 48 h): 3.12 µg/mL (≈ 9.47 µM); MIC ([6]; Nakaseomyces glabratus, ATCC15545, 48 h): 25 µg/mL (≈ 75.9 µM); MIC (Candida albicans CCH 442; Candida albicans, CCH442, 48 h): 50 µg/mL (≈ 152 µM); MIC ([7]; Candida tropicalis, NRRLY112, 48 h): 25 µg/mL (≈ 75.9 µM) |
| CCOC(=O)CN1Sc2ccccc2[S+]1[O-] (stereo not drawn) [Example 21, ethyl 2-(1,3,2-benzodithiazole-2-yl-1-oxide)-acetate] |  |  |  |  |  |  |  |  |  |  | MIC ([1]; Aspergillus niger ATCC 16404, 35°-37° C., 48 hours): 1.56 µg/mL (≈ 6.06 µM); MIC ([2]; Cryptococcus albidus ATCC 34140, 35°-37° C., 48 hours): 12.5 µg/mL (≈ 48.6 µM); MIC ([3]; Candida albicans ATCC 62376, 35°-37° C., 48 hours): 6.25 µg/mL (≈ 24.3 µM); MIC ([4]; Candida albicans ATCC 10231, 35°-37° C., 48 hours): 6.25 µg/mL (≈ 24.3 µM); MIC (Candida kefyr ATCC 28838; Candida kefyr ATCC 28838, 35°-37° C., 48 hours): 0.78 µg/mL (≈ 3.03 µM); MIC (Candida albicans 579A; Candida albicans 579A, 35°-37° C., 48 hours): 6.25 µg/mL (≈ 24.3 µM); MIC ([5]; Candida albicans ATCC 38247, 35°-37° C., 48 hours): 6.25 µg/mL (≈ 24.3 µM); MIC ([6]; Torulopsis glabrata ATCC 15545, 35°-37° C., 48 hours): 3.12 µg/mL (≈ 12.1 µM); MIC (Candida albicans CCH 442; Candida albicans CCH 442, 35°-37° C., 48 hours): 6.25 µg/mL (≈ 24.3 µM); MIC ([7]; Candida tropicalis NRRL-Y-112, 35°-37° C., 48 hours): 6.25 µg/mL (≈ 24.3 µM) |
| O=C(O)COCCN1Sc2ccccc2[S+]1[O-] (stereo not drawn) [Example 22, 2-(2-(1,3,2-benzodithiazole-2-yl-1-oxide)ethyloxy) acetic acid] | 25 (≈ 91.5 µM) | 100 (≈ 366 µM) | 100 (≈ 366 µM) | 100 (≈ 366 µM) | 3.12 (≈ 11.4 µM) | 100 (≈ 366 µM) | 50 (≈ 183 µM) | 100 (≈ 366 µM) | 100 (≈ 366 µM) | 100 (≈ 366 µM) |  |
| CN(C)CCCN1Sc2ccccc2[S+]1[O-] (stereo not drawn) [Example 23, 2-(3-(N,N-dimethylamino)-n-propyl)-1,3,2-benzodithiazole-1-oxide] | 12.5 (≈ 48.8 µM) | 12.5 (≈ 48.8 µM) | 50 (≈ 195 µM) | 50 (≈ 195 µM) | 3.12 (≈ 12.2 µM) | 50 (≈ 195 µM) | 12.5 (≈ 48.8 µM) | 50 (≈ 195 µM) | 50 (≈ 195 µM) | 50 (≈ 195 µM) |  |
| [O-][S+]1c2ccccc2SN1CCN1CCCCC1 (stereo not drawn) [Example 24, 2-(2-(1-piperidinyl)ethyl)-1,3,2-benzodithiazole-1-oxide] | 3.12 (≈ 11 µM) | 12.5 (≈ 44.3 µM) | 25 (≈ 88.5 µM) | 25 (≈ 88.5 µM) | 0.78 (≈ 2.76 µM) | 25 (≈ 88.5 µM) | 12.5 (≈ 44.3 µM) | 12.5 (≈ 44.3 µM) | 25 (≈ 88.5 µM) | 25 (≈ 88.5 µM) |  |
| CCOC(CCCN1Sc2ccccc2[S+]1[O-])OCC (stereo not drawn) [Example 25, 2-(4,4-diethoxybutyl)-1,3,2-benzodithiazole-1-oxide] | 3.12 (≈ 9.89 µM) | 12.5 (≈ 39.6 µM) | 6.25 (≈ 19.8 µM) | 6.25 (≈ 19.8 µM) | 3.12 (≈ 9.89 µM) | 3.12 (≈ 9.89 µM) | 1.56 (≈ 4.95 µM) | 6.25 (≈ 19.8 µM) | 1.56 (≈ 4.95 µM) | 12.5 (≈ 39.6 µM) |  |
| COC(=O)CCCCCCCN1Sc2ccccc2[S+]1[O-] (stereo not drawn) [Example 26] | 0.78 (≈ 2.38 µM) | 6.25 (≈ 19.1 µM) | 1.56 (≈ 4.76 µM) | 1.56 (≈ 4.76 µM) | 0.78 (≈ 2.38 µM) | 3.12 (≈ 9.53 µM) | 12.5 (≈ 38.2 µM) | 3.12 (≈ 9.53 µM) | 3.12 (≈ 9.53 µM) | 3.12 (≈ 9.53 µM) |  |
| [O-][S+]1c2ccccc2SN1C1CC1 (stereo not drawn) [Example 27, 2-cyclopropyl-1,3,2-benzodithiazole-1-oxide] | 0.39 (≈ 1.85 µM) | 3.12 (≈ 14.8 µM) | 0.78 (≈ 3.69 µM) | 1.56 (≈ 7.38 µM) | 0.39 (≈ 1.85 µM) | 0.78 (≈ 3.69 µM) | 3.12 (≈ 14.8 µM) | 0.78 (≈ 3.69 µM) | 1.56 (≈ 7.38 µM) | 1.56 (≈ 7.38 µM) |  |
